According to ChEMBL document CHEMBL1151544, “Biarylcarboxamide inhibitors of phosphodiesterase IV and tumor necrosis factor-” (Bioorg Med Chem Lett, 1997):

Experiments:
[1] = Ability to block the release of TNF-alpha in human monocytes; format: functional, cell-based
Homo sapiens = species: Homo sapiens; experiment: Ability to block the release of TNF-alpha in human whole blood; format: functional
Phosphodiesterase 4 = Phosphodiesterase 4 (Homo sapiens, UniProt P27815+Q08499+Q07343+Q08493); experiment: Tested for its ability to inhibit the hydrolysis of cAMP by human monocyte cytosol phosphodiesterase; format: protein assay
U-937 = experiment: Ability to elevate intracellular levels of cAMP in human U937 cells; format: functional, cell-based
Mus musculus [2] = experiment: Inhibition of LPS stimulated TNF-alpha release in mice at 1 mg/kg; format: functional
Mus musculus [3] = experiment: Inhibition of LPS stimulated TNF-alpha release in mice at 10 mg/kg; format: functional

SMILES	IC50 [1] [nM]	IC50 (U-937) [nM]	further results
COc1ccc(-c2ccc(C(N)=O)c(C)c2)cc1OC1CCCC1	190		
COc1ccc(-c2ccc(C(N)=O)cc2)cc1O[C@H]1CC2CCC1C2 (stereo not given in full)	24	22	IC50 (Homo sapiens): 180 nM; IC50 (Phosphodiesterase 4): 3610 nM
COc1ccc(-c2ncc(C(N)=O)cc2Cl)cc1OC1CCCC1	360		
COc1ccc(-c2ccc(C(N)=O)cc2)cc1OC1CCCC1	26	81	IC50 (Homo sapiens): 450 nM; IC50 (Phosphodiesterase 4): 5910 nM
COc1ccc(-c2ccc(C(N)=O)cc2Cl)cc1OC1CCCC1	260		
COc1ccc(-c2ccc(C(N)=O)nc2)cc1O[C@H]1CC2CCC1C2 (stereo not given in full)	9	49	IC50 (Homo sapiens): 140 nM; IC50 (Phosphodiesterase 4): 1070 nM
COc1ccc(-c2ccc(C(N)=O)cc2)cc1OC1Cc2ccccc2C1	320		
COc1ccc(-c2ccc(C(=O)O)cc2)cc1O[C@H]1CC2CCC1C2 (stereo not given in full)	140		
COc1ccc(-c2ccc(C(N)=O)cn2)cc1OC1CCCC1	80		
COc1ccc(-c2ccc(C(N)=O)nc2)cc1OCCc1ccccc1	180		
COc1ccc(-c2ccc(C(N)=O)nc2)cc1OCCCc1ccccc1	2310		
COc1ccc(-c2ccc(C(N)=O)c(Cl)c2)cc1OC1CCCC1	82		
COc1ccc(-c2ccc(C(N)=O)nc2)cc1OC1CCCC1	37	46	IC50 (Homo sapiens): 180 nM; inhibition in vivo at 1 mg/kg (Mus musculus [2]): 65.2%; IC50 (Phosphodiesterase 4): 340 nM
COc1ccc(-c2ccc(C(N)=O)nc2)cc1OC1Cc2ccccc2C1	120		
COc1ccc(-c2ccc(C(N)=O)c(C(F)(F)F)c2)cc1OC1CCCC1	1170		
COc1ccc([C@]2(C#N)CC[C@@H](C(=O)O)CC2)cc1OC1CCCC1 [CILOMILAST]	290	3630	IC50 (Homo sapiens): 6120 nM; inhibition in vivo at 10 mg/kg (Mus musculus [3]): 59.4%
COc1ccc(C2CNC(=O)C2)cc1OC1CCCC1 (stereo not given) [ROLIPRAM]	310	1230	inhibition in vivo at 1 mg/kg (Mus musculus [2]): 68%
